{"source": "patent US20240417428A1", "about": "“POLYPEPTIDE FOR INHIBITING TRPM8 AND USE THEREOF” (ZHEJIANG UNIVERSITY, priority 2021, published 2024)", "key": {"TRPM4": {"biological_target": "T1, TRPM4 (Mus musculus, UniProt Q7TN37, K1045A)", "T1 construct": "expressed in transfected cells; host or cells: HEK293T", "T1 sequence (Q7TN37 whole entry K1045A)": "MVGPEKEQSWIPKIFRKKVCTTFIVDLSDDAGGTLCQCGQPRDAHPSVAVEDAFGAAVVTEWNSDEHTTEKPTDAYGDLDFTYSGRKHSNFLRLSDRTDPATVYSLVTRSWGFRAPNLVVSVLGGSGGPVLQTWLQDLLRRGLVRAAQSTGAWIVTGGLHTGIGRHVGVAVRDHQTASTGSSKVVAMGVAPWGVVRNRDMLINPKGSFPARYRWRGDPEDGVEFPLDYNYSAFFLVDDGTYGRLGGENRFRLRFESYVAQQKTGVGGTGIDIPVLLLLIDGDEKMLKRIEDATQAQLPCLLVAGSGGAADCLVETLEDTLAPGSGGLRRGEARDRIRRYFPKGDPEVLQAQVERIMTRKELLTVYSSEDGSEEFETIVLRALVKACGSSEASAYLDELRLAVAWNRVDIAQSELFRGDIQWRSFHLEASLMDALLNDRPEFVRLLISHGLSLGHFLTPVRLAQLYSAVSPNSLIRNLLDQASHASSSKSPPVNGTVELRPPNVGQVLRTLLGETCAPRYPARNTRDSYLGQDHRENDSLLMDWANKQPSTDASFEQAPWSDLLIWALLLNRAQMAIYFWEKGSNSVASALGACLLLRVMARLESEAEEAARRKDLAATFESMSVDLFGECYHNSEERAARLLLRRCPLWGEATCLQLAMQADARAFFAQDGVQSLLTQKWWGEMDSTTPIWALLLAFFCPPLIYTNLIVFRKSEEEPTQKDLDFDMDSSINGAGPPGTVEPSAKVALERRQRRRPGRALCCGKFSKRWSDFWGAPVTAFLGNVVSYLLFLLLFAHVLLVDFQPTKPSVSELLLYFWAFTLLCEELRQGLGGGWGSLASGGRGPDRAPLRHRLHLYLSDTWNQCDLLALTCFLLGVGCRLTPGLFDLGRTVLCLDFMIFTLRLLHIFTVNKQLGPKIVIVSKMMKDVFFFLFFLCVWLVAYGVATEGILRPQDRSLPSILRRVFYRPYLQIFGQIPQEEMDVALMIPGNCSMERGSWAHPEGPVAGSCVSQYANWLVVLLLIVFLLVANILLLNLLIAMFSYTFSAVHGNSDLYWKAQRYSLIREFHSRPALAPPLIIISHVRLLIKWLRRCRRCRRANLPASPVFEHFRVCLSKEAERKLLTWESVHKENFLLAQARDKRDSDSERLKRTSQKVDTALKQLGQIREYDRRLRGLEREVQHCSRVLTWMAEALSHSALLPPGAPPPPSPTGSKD", "experiment": "Electrophysiological recording, ligand activation of TRPM4 (TRPM4-K1045A)", "type": "cell-based", "description": "HEK293T cells were cultured in Dulbecco's modified Eagle culture medium under a 37° C., 5% CO2 environment, 10% fetal bovine serum, penicillin (100 U/mL), and streptomycin ([…]) was needed to add into the culture medium. Transient transfection was conducted by using Lipo 2000 (Invitrogen) transfection kit and following the instruction manual.\nElectrophysiological experiment recordings were performed on the cells within 24˜48 h of transient transfections. Specifically, single channel electrophysiological recordings were performed within 8 h after transfection.\nMeasurement of the cell currents was respectively performed in the whole-cell recording mode, inside-out recording mode or outside-out recording mode with a HEKA EPC10 amplifier. In the whole cell electrophysiological recordings, glass microelectrodes made of borosilicate material were fire-polished to a original electrode resistance of about 3-6 MΩ. Serial resistance was compensated by 60%. The whole cell electrophysiological recordings were performed at ±80 mV. For single channel electrophysiological recordings, glass microelectrodes were fire-polished to a higher resistance of 6-8 MΩ2. Current signal was sampled at 10 kHz and filtered at 2.9 kHz. Membrane potential of the cell membrane would be clamped at +80 mV. All electrophysiological recordings were performed at room temperature (22° C.) (the maximum variation is 1° C.). […]"}, "TRPM8": {"biological_target": "TRPM8 (Mus musculus, UniProt Q8R4D5)", "sequence (Q8R4D5 whole entry)": "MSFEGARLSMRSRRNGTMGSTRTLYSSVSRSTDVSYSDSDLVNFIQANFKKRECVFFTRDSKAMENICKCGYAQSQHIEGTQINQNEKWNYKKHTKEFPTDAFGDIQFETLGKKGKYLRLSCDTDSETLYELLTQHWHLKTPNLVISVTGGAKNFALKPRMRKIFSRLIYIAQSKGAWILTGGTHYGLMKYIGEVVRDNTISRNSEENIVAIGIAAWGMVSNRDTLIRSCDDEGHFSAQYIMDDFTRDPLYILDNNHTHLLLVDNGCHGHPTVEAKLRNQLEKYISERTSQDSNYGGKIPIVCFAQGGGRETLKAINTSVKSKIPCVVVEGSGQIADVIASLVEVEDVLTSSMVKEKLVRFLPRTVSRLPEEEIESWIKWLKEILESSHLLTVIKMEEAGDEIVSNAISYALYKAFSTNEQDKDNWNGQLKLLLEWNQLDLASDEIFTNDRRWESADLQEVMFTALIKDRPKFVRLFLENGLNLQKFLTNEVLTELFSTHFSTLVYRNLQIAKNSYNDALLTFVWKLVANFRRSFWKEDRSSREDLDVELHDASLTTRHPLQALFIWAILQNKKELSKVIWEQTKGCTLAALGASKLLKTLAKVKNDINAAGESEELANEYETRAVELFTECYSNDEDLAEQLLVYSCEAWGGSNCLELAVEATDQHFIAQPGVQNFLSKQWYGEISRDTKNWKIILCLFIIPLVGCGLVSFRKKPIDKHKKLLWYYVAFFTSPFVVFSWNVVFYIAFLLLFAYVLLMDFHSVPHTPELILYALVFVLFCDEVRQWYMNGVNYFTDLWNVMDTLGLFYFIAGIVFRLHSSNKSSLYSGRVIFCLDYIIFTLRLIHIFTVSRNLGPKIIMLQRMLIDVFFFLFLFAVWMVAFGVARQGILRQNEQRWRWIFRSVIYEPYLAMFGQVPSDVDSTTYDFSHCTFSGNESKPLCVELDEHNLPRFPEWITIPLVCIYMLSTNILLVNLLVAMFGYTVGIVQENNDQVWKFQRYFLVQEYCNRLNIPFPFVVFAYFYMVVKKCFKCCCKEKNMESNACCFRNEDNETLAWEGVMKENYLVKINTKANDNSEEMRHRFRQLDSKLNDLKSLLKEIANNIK", "experiment": "Calcium imaging of primary cultured DRG neurons from oxaliplatin-treated mice", "type": "cell-based", "parameters": "endogenous in cells; host or cells: primary cultured dorsal root ganglion neurons from saline- or oxaliplatin-treated mice", "details": "10 μM DeC-1.2, DRG neurons of oxaliplatin treated mice", "description": "Mice was deeply anaesthetized, decapitated and blood was removed, DRG tissue was dissected off quickly and placed in ice-cold PBS solution. After washing the blood, digestive enzyme (Collagenase A 20 mg/100 ml, Dispase II 300 mg/100 ml dissolved in PBS) was added and DRG was digested at 37° C. for 1 hour. The samples were centrifuged at 500 g for 5 min and the digested tissue was collected. When the enzyme solution was removed, an appropriate amount of DMEM medium (containing 10% FBS, 1× Pen/Strep) was added, and the single cell suspension was prepared by mechanical trituration. The samples were centrifuged at 500 g for 10 min. […]\nThe primary-cultured DRG neurons were washed with a extracellular solution (ECS, 140 mM NaCl, 5 mM KCl, 1 mM MgCl2, 1.8 mM CaCl2), 10 mM Glucose, 15 mM HEPES, pH=7.4) then incubated in calcium dye incubation solution (2 μM […], 0.05% Pluronic F-127 in ECS) for 30 min. The cell images were continuously and alternately excited by a high-speed continuous monochromatic light source under the excitation wavelength of 340 nm and 380 nm, and recorded in full vision under 20× object lens by Visiview software Intracellular fluorescence intensity changes were continuously recorded at 0.5 fps via a high-speed scanning camera Flash4.0LT. The ratio of fluorescence signal at 340 nm/380 nm represents the intensity of calcium signal. […]"}}, "note": "Where a SMILES comes first, the peptide text is derived from it."}
{"smiles": "C[C@@H]1NC(=O)[C@H](CCCNC(=N)N)NC(=O)[C@H](CC(=O)O)NC(=O)[C@H](CCCNC(=N)N)NC(=O)[C@H](CCCNC(=N)N)NC(=O)[C@@H](N)CSSC[C@@H](C(=O)O)NC(=O)[C@H](CCCNC(=N)N)NC(=O)[C@H](CCC(N)=O)NC(=O)[C@H](CCCNC(=N)N)NC(=O)[C@H](Cc2ccc(O)cc2)NC(=O)[C@H](Cc2c[nH]cn2)NC(=O)[C@H](CCCNC(=N)N)NC1=O", "note": "[DeC-1.2, CRRDRARHYRQRC] (HELM PEPTIDE1{C.R.R.D.R.A.R.H.Y.R.Q.R.C}$PEPTIDE1,PEPTIDE1,1:R3-13:R3$$$V2.0; N-terminus and C-terminus assumed)", "values": [{"measurement": "IC50", "setting": "TRPM4", "value": "> 10", "unit": "µM"}, {"measurement": "amplitude of calcium influx induced by menthol", "setting": "TRPM8", "value": "significantly inhibit"}, {"measurement": "percentage of positive reaction cells in response to menthol", "setting": "TRPM8", "value": "significantly inhibit"}]}
